Measurements published in US20090023753A1, “1,3-Thiazole-5-Carboxamides Useful as Cancer Chemotherapeutic Agents” (Bayer HealthCare AG, priority 2005, published 2009).

Experiments:
[1] = test system: P-AKT/PKB in H209 small cell lung carcinoma cells; assay: P-AKT/PKB Cytoblot Assay with H209 cells (SCF-stimulated); type: cell-based; settings: Homo sapiens, NCI-H209, 1 hour compound incubation, SCF 25 ng/mL for 5 minutes, p-(S473) AKT
Description: The utility of the compounds of the present invention can be illustrated, for example, by their activity in the P-AKT/PKB Cytoblot Assay described below. The involvement of the P-AKT/PKB[PI3K/AKt] pathway as a target for cancer chemotherapy has been recognized in the art. For example, see F. Chang et al, Involvement of PI3K/Akt pathway in cell cycle progression, apoptosis, and neoplastic transformation: a target for cancer chemotherapy, Leukemia, 2003, 17: p. 590-603; K. A. West et al, Activation of the PI3K/Akt pathway and chemotherapeutic resistance, Drug Resistance Updates, 2002, 5: p. 234-248; and P. Sen et al, Involvement of the Akt/PKB signaling pathway with disease processes, Molecular and Cellular Biochemistry, 2003, 253: p. 241-246.
P-AKT/PKB Cytoblot Assay Protocol with H209 Cells
H209 small cell lung carcinoma cells in log phase were plated at 50,000 cells/well in 96-well poly-lysine coated, clear bottom/black-sided plates (Becton-Dickinson, USA Cat # 354640) in 100 Ill RPMI medium containing 0.1% (w/v) BSA, and incubated overnight at 37° C. in 5% CO2 incubator. The following day, compounds (10 mM stock solutions in DMSO) were added to the plates to generate final concentrations of 0.0, 0.01, 0.03, 0.1, 0.3, 1.0, 3.0 and 10 μM for IC50 determinations and incubated for 1 hour at 37° C. Cells were then left untreated or stimulated with Stem Cell Factor (SCF: Biosource Cat # PHC2116) at a final concentration of 25 ng/mL for 5 minutes at 37° C. in 5% CO2 incubator. The media was then removed using a vacuum manifold and the cells were washed once with Tris Buffered Saline (TBS). Cells were then fixed by adding 200 μl of cold 3.7% (v/v) formaldehyde in TBS to each well for 15 minutes at 4° C. After removal of the formaldehyde, the cells were treated with the addition of 50 μl of methanol (at −20° C.) to each well for 5 minutes. After removal of the methanol, 200 μl of 1% (w/v) BSA in TBS was added to each well to block non-specific antibody binding sites and the plate was incubated at room temperature for 30 minutes.
After removal of the blocking buffer, 50 μl of p-(S473) AKT rabbit polyclonal antibody (Cell Signaling, USA Cat # 9277S) was added at a dilution of 1:250 in 0.1% (w/v) BSA in TBS, and the plate was incubated at room temperature for 1 hour. Plates were then washed 3 times with cold TBS containing 0.05% (v/v) Tween 20 (TBS-T) and 100 μl of Horseradish peroxidase (HRP)-conjugated goat-anti-rabbit antibody (Amersham, USA Cat # NA934V) at a dilution of 1:250 in TBS-T was added and the plate was incubated at room temperature for 1 h. After washing with ice-cold TBS-T four times, 100 μl of Enhanced Chemiluminescence (ECL) reagent (Amersham, USA Cat# RPN2209) was added to each well and mixed on a mini-orbital shaker for 1 min. The plate was then read on a Perkin Elmer Victor 5 Multilabel Counter (#1420-0421).

[2] = test system: phospho-ERK in MDA-MB-231 cells; assay: Phospho-ERK Cytoblot Assay with MDA-MB 231 cells; type: cell-based; settings: Homo sapiens, 1 hour compound incubation, phospho-p44/42 MAP kinase (Thr202/Tyr204)
Description: The utility of the compounds of the present invention can also be illustrated, for example, by their activity in the phosph-ERK Assay described below. Growth-factor induction of the RAS/MEK/ERK signaling pathway leads to the induction of phosphorylation of a number of proteins including phospho-ERK (See C. J. Marshall, MAP kinase kinase kinase, MAP kinase kinase and MAP kinase, Current Opinions in Genetic Development, 1994, 4: p. 82-89). The importance of this pathway in cancer biology has been recognized in the art. Activation of the RAS signaling pathway is an important mechanism by which cancer develops (R. Herrera, et al, Unraveling the complexities of the Raf/MAP kinase pathway for pharmacological intervention, Trends Mol. Med., 2002, 8: p. S27-31). Mutational activation of RAS or downstream effectors as well as growth factor induction of this pathway leads to increased tumor cell proliferation and survival (A. A. Adjei, Blocking oncogenic RAS signaling for cancer therapy, J. Natl. Cancer Inst., 2001, 93(14): p. 1062-1074; J Schlessinger, Cell signaling by receptor tyrosine kinases, Cell, 2000, 103: p. 211-225). Phospho-ERK Cytoblot Assay Protocol with MDA-MB 231 Cells MDA-MB-231 cells in log phase were plated at 25,000 cells/well in 96-well opaque plates (Falcon, USA Cat # 353296) in 100 μL RPMI medium containing 10% (w/v) FBS, and incubated overnight at 37° C. in 5% CO2 incubator. The following day, the growth medium was removed from the plate by aspiration and replaced with RPMI medium containing 0.1% BSA and example compounds diluted to generate final concentrations of 0.0, 0.001, 0.003, 0.01, 0.03, 0.1, 0.3, 1 and 3 μM. Cells were incubated with compound for 1 hour at 37° C. in a 5% CO2 incubator. The media was then removed from the plate by aspiration and the cells were washed once with 180 μL/well cold Tris Buffered Saline (TBS). After removal of the wash buffer, the cells were fixed by adding 180 μL of cold 3.7% (v/v) formaldehyde in TBS to each well for 1 hour at 4° C. After removal of the formaldehyde, the cells were treated with the addition of 60 μL of −20° C. methanol to each well for 5 minutes at 4° C. The methanol was removed and the cells were washed with 180 μL/well of 5% (w/v) BSA in TBS. To block non-specific antibody binding sites, each well was treated with 180 μL/well 5% BSA (w/v) in TBS for thirty minutes at room temperature. After removal of the blocking buffer, 50 μL of an anti-phospho-p44/42 MAP kinase (Thr202/Tyr204) rabbit polyclonal antibody (Cell Signaling, USA Cat # 9101) was added to each well at a dilution of 1:1000 in 5% (w/v) BSA in TBS, and the plate was incubated at 4° C. overnight. Plates were then washed three times with 300 μL/well TBS at room temperature. The plates were then incubated with 50 μL of Horseradish peroxidase (HRP)-conjugated goat-anti-rabbit antibody (Amersham, USA Cat. # NA934V) at a dilution of 1:1000 in 5% BSA-TBS at room temperature for 1 hr. After washing the plate three times with 300 μL/well TBS, 60 μL of Enhanced Chemiluminescence (ECL) reagent (Amersham, USA Cat# RPN2209) was added to each well and incubated at room temperature for five minutes. The plate was then read on a Perkin Elmer Victor 5 Multilabel Counter (#1420-0421). […] The utility of the compounds of the present invention can also be illustrated, for example, by their activity in the flk-1 (murine VEGFR2) Assay described below. The VEGF-VEGFR2 signaling pathway has been extensively characterized as an important regulator of angiogenesis and tumor angiogeneisis (See G. Yancopoulos et al, Vascular-specific growth factors and blood vessel formation, Nature, 2000, 407: p. 242-248; D. Shweiki et al, Induction of vascular endothelial growth factor expression by hypoxia and by glucose deficiency in multi cell spheroids: Implications for tumor angiogenesis, Proc. Natl. Acad. Sci, 1995, 92: p. 768-772). Inhibition of tumor cell growth by blocking this pathway has been well documented in the art. […]

[3] = molecular target: T1, Flk-1 (murine VEGFR-2) kinase domain (Mus musculus, UniProt P35918); assay: Flk-1 (murine VEGFR-2) Biochemical Assay (TR-FRET); settings: 10 μM ATP, 7 nM Flk-1 (kinase domain)
T1 construct: 7 nM Flk-1 (kinase domain)
T1 sequence (P35918 832-1160 limits assumed): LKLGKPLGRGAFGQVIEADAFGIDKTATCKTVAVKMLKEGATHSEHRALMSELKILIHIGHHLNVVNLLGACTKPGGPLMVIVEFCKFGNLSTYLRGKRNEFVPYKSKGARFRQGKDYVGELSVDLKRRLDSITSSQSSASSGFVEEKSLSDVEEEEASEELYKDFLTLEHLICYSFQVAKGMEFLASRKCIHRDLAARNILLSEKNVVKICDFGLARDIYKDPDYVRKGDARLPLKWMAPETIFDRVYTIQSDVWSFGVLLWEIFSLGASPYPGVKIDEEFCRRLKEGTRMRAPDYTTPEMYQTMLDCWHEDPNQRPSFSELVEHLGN

| Compound | IC50 [1] [nM] | IC50 [2] [nM] | IC50 [3] [nM] |
| --- | --- | --- | --- |
| CNC(=O)c1cc(CNc2ncsc2C(=O)Nc2ccc3c(c2)OC(F)(F)O3)ccn1 [Example 1, 4-{[(5-{[(2,2-difluoro-1,3-benzodioxol-5-yl)amino]carbonyl}-1,3-thiazol-4-yl)amino]methyl}-N-methylpyridine-2-carboxamide] | < 500 | < 3000 | < 500 |
| CC(=O)Nc1cc(CNc2ncsc2C(=O)Nc2ccc3c(c2)OC(F)(F)C(F)(F)O3)ccn1 [Example 11, 4-({[2-(acetylamino)pyridin-4-yl]methyl}amino)-N-(2,2,3,3-tetrafluoro-2,3-dihydro-1,4-benzodioxin-6-yl)-1,3-thiazole-5-carboxamide] | < 500 | < 3000 | < 500 |
| CN(C)CCCCNC(=O)c1cc(CNc2ncsc2C(=O)Nc2ccc3c(c2)OC(F)(F)O3)ccn1 [Example 6, 4-{[(5-{[(2,2-difluoro-1,3-benzodioxol-5-yl)amino]carbonyl}-1,3-thiazol-4-yl)amino]methyl}-N-[4-(dimethylamino)butyl]pyridine-2-carboxamide] | < 500 |  | < 500 |
| O=C(NCCCCN1CCCC1)c1cc(CNc2ncsc2C(=O)Nc2ccc3c(c2)OC(F)(F)O3)ccn1 [Example 5, 4-{[(5-{[(2,2-difluoro-1,3-benzodioxol-5-yl)amino]carbonyl}-1,3-thiazol-4-yl)amino]methyl}-N-(4-pyrrolidin-1-ylbutyl)pyridine-2-carboxamide] |  |  | < 500 |
| NC(=O)c1cc(CNc2ncsc2C(=O)Nc2ccc3c(c2)OC(F)(F)O3)ccn1 [Example 3, 4-{[(5-{[(2,2-difluoro-1,3-benzodioxol-5-yl)amino]carbonyl}-1,3-thiazol-4-yl)amino]methyl}pyridine-2-carboxamide] | < 500 |  | < 500 |
| Nc1cc(CNc2ncsc2C(=O)Nc2ccc3c(c2)OC(F)(F)C(F)(F)O3)ccn1 [Example 16, 4-{[(2-aminopyridin-4-yl)methyl]amino}-N-(2,2,3,3-tetrafluoro-2,3-dihydro-1,4-benzodioxin-6-yl)-1,3-thiazole-5-carboxamide] | < 500 |  | < 500 |
| Nc1cc(CNc2ncsc2C(=O)Nc2ccc3c(c2)OC(F)(F)O3)ccn1 [Example 15, 4-{[(2-aminopyridin-4-yl)methyl]amino}-N-(2,2-difluoro-1,3-benzodioxol-5-yl)-1,3-thiazole-5-carboxamide] | < 500 |  |  |

Other lines, results leading:

| IC50 [1] [nM] | IC50 [2] [nM] | IC50 [3] [nM] | Compound |
| --- | --- | --- | --- |
| < 500 | < 3000 | < 500 | CNC(=O)Nc1cc(CNc2ncsc2C(=O)Nc2ccc3c(c2)OC(F)(F)C(F)(F)O3)ccn1 [Example 20, 4-{[(2-{[(methylamino)carbonyl]amino}pyridin-4-yl)methyl]amino}-N-(2,2,3,3-tetrafluoro-2,3-dihydro-1,4-benzodioxin-6-yl)-1,3-thiazole-5-carboxamide] |
| < 500 | < 3000 | < 500 | COCC(=O)Nc1cc(CNc2ncsc2C(=O)Nc2ccc3c(c2)OC(F)(F)C(F)(F)O3)ccn1 [Example 8, 4-[({2-[(methoxyacetyl)amino]pyridin-4-yl}methyl)amino]-N-(2,2,3,3-tetrafluoro-2,3-dihydro-1,4-benzodioxin-6-yl)-1,3-thiazole-5-carboxamide] |
| < 500 | < 3000 | < 500 | CCNC(=O)Nc1cc(CNc2ncsc2C(=O)Nc2ccc3c(c2)OC(F)(F)O3)ccn1 [Example 17, N-(2,2-difluoro-1,3-benzodioxol-5-yl)-4-{[(2-{[(ethylamino)carbonyl]amino}pyridin-4-yl)methyl]amino}-1,3-thiazole-5-carboxamide] |
| < 500 | < 3000 | < 500 | CC(=O)OCC(=O)Nc1cc(CNc2ncsc2C(=O)Nc2ccc3c(c2)OC(F)(F)C(F)(F)O3)ccn1 [Example 14, 2-oxo-2-[(4-{[(5-{[(2,2,3,3-tetrafluoro-2,3-dihydro-1,4-benzodioxin-6-yl)amino]carbonyl}-1,3-thiazol-4-yl)amino]methyl}pyridin-2-yl)amino]ethyl acetate] |
| < 500 |  | < 500 | CS(=O)(=O)Nc1cc(CNc2ncsc2C(=O)Nc2ccc3c(c2)OC(F)(F)C(F)(F)O3)ccn1 [Example 12, 4-[({2-[(methylsulfonyl)amino]pyridin-4-yl}methyl)amino]-N-(2,2,3,3-tetrafluoro-2,3-dihydro-1,4-benzodioxin-6-yl)-1,3-thiazole-5-carboxamide] |
| < 500 | < 3000 | < 500 | CCNC(=O)Nc1cc(CNc2ncsc2C(=O)Nc2ccc3c(c2)OC(F)(F)C(F)(F)O3)ccn1 [Example 21, 4-{[(2-{[(ethylamino)carbonyl]amino}pyridin-4-yl)methyl]amino}-N-(2,2,3,3-tetrafluoro-2,3-dihydro-1,4-benzodioxin-6-yl)-1,3-thiazole-5-carboxamide] |
